Results from patent US6653478B2, “Substituted benzimidazol-2-ones as vasopressin receptor antagonists and neuropeptide Y modulators” (Ortho-McNeil Pharmaceutical, Inc., priority 2000, dated 2003).

What was measured:
Parameters in all cases: expressed in transfected cells; host or cells: HEK-293 (membranes)
human V1a receptor = human V1a receptor (Homo sapiens, UniProt P37288); experiment: V1a binding assay (3H-AVP displacement, HEK-293 membranes); settings: for inhibition at 1 µM: 1.0 μM compound, read-out: V1a@1.0, % Inh
Protocol: (§1) V1a, V1b or V2 Binding Assay
(§2) Receptor binding studies were performed using recombinant human V1a, V1b or V2 receptors. Cellular membranes were harvested from HEK-293 cells transfected to express either the V1a, V1b or V2 receptors. Compounds were evaluated for their ability to displace ^3H-arginine vasopressin (^3H-AVP; specific activity 40-87 Ci/mmol; NEN Life Sciences, Boston, Mass.). Compounds were solubilized in dimethylsulfoxide (DMSO) and diluted to working concentration of 10% DMSO with assay buffer (50 mM Tris, 5 mM MgCl2, 0.1% BSA, pH 7.5). Assay buffer was supplemented with several protease inhibitors (1 mM Pefabloc, 5 μg/ml aprotinin/leupeptin/pepstatin A, 50 μg/ml bacitracin; Sigma Chemical, St. Louis, Mo.). Non-specific binding was determined using 1.25 μM arginine vasopressin (AVP; Peninsula Labs, Belmont, Calif.). Assay reagents and test compounds were added to 96-well round bottom polypropylene plates (145 μl buffer, 5 μl compound in 10% DMSO, 25 μl buffer containing 10,000 cpm tracer, 25 μl cell membrane). After incubation for 1 hour at room temperature, the well contents were aspirated across a Unifilter GF/C plate (Packard Instrument, Downers Grove, Ill.) which had been presoaked in 0.3% polyethyleneimine to prevent peptide sticking. The wells were washed repeatedly with cold saline containing 0.05% Tween 20. The plate was then dried and 25 μl Microscint-20 cocktail (Packard Instruments) added to each well. The plates were sealed and counted on a TopCount scintillation counter (Packard Instruments) using quench correction.

human V1b receptor = target: T1, human V1b receptor (Homo sapiens, UniProt P47901); experiment: V1b binding assay (3H-AVP displacement, HEK-293 membranes); settings: for inhibition at 1 µM: 1.0 μM compound, read-out: V1b@1.0, % Inh
T1 sequence (P47901 1-424): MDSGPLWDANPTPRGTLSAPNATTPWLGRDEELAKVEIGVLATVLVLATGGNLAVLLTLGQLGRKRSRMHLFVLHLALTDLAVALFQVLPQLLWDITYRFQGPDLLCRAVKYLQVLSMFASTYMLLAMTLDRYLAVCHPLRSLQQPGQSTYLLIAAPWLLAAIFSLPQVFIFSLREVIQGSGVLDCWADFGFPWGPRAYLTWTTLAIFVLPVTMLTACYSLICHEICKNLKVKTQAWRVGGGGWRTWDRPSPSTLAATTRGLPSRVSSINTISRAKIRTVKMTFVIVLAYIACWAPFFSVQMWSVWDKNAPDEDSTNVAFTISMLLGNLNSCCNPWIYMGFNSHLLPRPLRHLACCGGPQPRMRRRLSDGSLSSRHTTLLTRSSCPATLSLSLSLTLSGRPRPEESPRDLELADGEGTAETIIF
Protocol: as §1, §2

human V2 receptor = human V2 receptor (Homo sapiens, UniProt P30518); experiment: V2 binding assay (3H-AVP displacement, HEK-293 membranes); settings: 1.0 μM compound; for inhibition at 1 µM: read-out: V2@1.0, % Inh
Protocol: as §1, §2

human V2 receptor, sequence (P30518 whole entry): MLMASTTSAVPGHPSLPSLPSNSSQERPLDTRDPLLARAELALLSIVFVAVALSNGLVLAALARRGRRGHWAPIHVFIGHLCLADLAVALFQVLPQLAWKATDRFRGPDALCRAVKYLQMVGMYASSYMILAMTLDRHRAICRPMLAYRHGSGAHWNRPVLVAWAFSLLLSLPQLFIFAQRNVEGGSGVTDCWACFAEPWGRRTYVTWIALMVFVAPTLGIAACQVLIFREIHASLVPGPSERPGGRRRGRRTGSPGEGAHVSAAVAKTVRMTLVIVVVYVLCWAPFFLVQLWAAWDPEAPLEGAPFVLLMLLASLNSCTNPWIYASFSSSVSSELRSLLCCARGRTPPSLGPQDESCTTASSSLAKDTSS
human V1a receptor, sequence (P37288 whole entry): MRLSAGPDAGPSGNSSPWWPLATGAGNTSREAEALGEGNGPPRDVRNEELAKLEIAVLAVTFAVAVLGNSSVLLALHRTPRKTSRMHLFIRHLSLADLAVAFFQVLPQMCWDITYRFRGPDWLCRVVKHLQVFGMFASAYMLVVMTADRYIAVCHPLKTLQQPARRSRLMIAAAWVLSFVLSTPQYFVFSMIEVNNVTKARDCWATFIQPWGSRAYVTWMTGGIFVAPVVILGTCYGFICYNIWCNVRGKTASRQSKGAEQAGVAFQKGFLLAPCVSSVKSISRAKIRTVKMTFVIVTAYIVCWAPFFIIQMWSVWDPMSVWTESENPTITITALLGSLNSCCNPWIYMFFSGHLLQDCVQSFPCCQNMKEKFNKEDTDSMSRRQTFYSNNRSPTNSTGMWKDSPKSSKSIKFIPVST

SMILES | IC50 (human V1a receptor) [nM] | inhibition at 1 µM (human V1b receptor) [%] | inhibition at 1 µM (human V2 receptor) [%] | inhibition at 0.5 µM (human V1a receptor; 0.5 μM compound, read-out: V1a % Inh @0.5) [%] | inhibition at 1 µM (human V1a receptor) [%] | IC50 (human V1b receptor) [nM] | V2@1.0, % Inh (human V2 receptor; 1 µM) [%]
O=c1n(CCCN2CCCCCCC2)c2ccccc2n1C1CCN(C(=S)NC(c2ccccc2)c2ccccc2)CC1 [Compound 142] | 68 | 56 | 4 | – | – | – | –
O=c1n(CCCN2CC=CCC2)c2ccccc2n1C1CCN(C(=S)NC(c2ccccc2)c2ccccc2)CC1 [Compound 143] | 41 | 65 | 8 | – | – | – | –
CN1CCN=C1NCCCn1c(=O)n(C2CCN(C(=S)NC(c3ccccc3)c3ccccc3)CC2)c2ccccc21 [Compound 144] | 395 | 31 | 2 | – | – | – | –
CC(CN1CCCCC1)Cn1c(=O)n(C2CCN(C(=S)NC(c3ccccc3)c3ccccc3)CC2)c2ccccc21 (stereo not shown) [Compound 146] | – | 33 | 0 | 15 | 85 | – | –
CC(CN1CCCCC1)Cn1c(=O)n(C2CCN(C(=O)NC(c3ccccc3)c3ccccc3)CC2)c2ccccc21 (stereo not shown) [Compound 147] | 440 | 27 | 1 | – | – | – | –
CC(CN1CCCC1)Cn1c(=O)n(C2CCN(C(=S)NC(c3ccccc3)c3ccccc3)CC2)c2ccccc21 (stereo not shown) [Compound 148] | 53 | 40 | 1 | – | – | – | –
CC(CN1CCCC1)Cn1c(=O)n(C2CCN(C(=O)NC(c3ccccc3)c3ccccc3)CC2)c2ccccc21 (stereo not shown) [Compound 149] | 42 | 44 | 0 | – | – | – | –
O=C(Cc1ccc(N2CCCC2)cc1)n1c(=O)n(C2CCN(C(=S)NC(c3ccccc3)c3ccccc3)CC2)c2ccccc21 [Compound 150] | – | 16 | 0 | – | 38 | – | –
Cc1ccccc1CNC(=O)N1CCC(n2c(=O)n(CCCN3CCCCC3)c3ccccc32)CC1 [Compound 151] | – | 37 | 0 | – | 62 | – | –
O=C(NC1c2ccccc2-c2ccccc21)N1CCC(n2c(=O)n(CCCN3CCCCC3)c3ccccc32)CC1 [Compound 152] | 230 | 38 | 2 | – | – | – | –
O=c1n(CCCN2CCCCC2)c2ccccc2n1C1CCN(C(=S)Nc2ccc(N3CCOCC3)cc2)CC1 [Compound 153] | – | 0 | 0 | – | 0 | – | –
O=c1n(CCCN2CCCCC2)c2ccccc2n1C1CCN(C(=S)Nc2cccnc2)CC1 [Compound 154] | – | 0 | 3 | – | 7 | – | –
O=c1n(CCCN2CCCCC2)c2ccccc2n1C1CCN(C(=S)Nc2ccc3c(c2)CCC3)CC1 [Compound 155] | – | 10 | 5 | – | 28 | – | –
O=c1n(CCCN2CCCCC2)c2ccccc2n1C1CCN(C(=S)Nc2ccc3c(c2)OCO3)CC1 [Compound 156] | 450 | 22 | 3 | – | – | – | –
O=C1OCCC1NC(=S)N1CCC(n2c(=O)n(CCCN3CCCCC3)c3ccccc32)CC1 (stereo not shown) [Compound 157] | – | 0 | 6 | – | 5 | – | –
O=c1n(CCCN2CCCCC2)c2ccccc2n1C1CCN(C(=S)NCc2ccco2)CC1 [Compound 158] | – | 18 | 42 | – | 55 | – | –

SMILES | IC50 (human V1a receptor) [nM] | inhibition at 1 µM (human V1b receptor) [%] | inhibition at 1 µM (human V2 receptor) [%] | inhibition at 0.5 µM (human V1a receptor; 0.5 μM compound, read-out: V1a % Inh @0.5) [%] | inhibition at 1 µM (human V1a receptor) [%] | IC50 (human V1b receptor) [nM] | V2@1.0, % Inh (human V2 receptor; 1 µM) [%]
O=c1n(CCCN2CCCCC2)c2ccccc2n1C1CCN(C(=S)NCC2CCCO2)CC1 (stereo not shown) [Compound 159] | – | 10 | 0 | – | 2 | – | –
O=c1n(CCCN2CCCCC2)c2ccccc2n1C1CCN(C(=S)NCc2cccs2)CC1 [Compound 160] | 230 | 27 | 0 | – | – | – | –
O=c1n(CCCN2CCCCC2)c2ccccc2n1C1CCN(C(=S)Nc2ccccc2-c2ccccc2)CC1 [Compound 161] | 108 | 40 | 2 | – | – | – | –
O=C(Nc1ccccc1-c1ccccc1)N1CCC(n2c(=O)n(CCCN3CCCCC3)c3ccccc32)CC1 [Compound 162] | 117 | 26 | 4 | – | – | – | –
O=c1n(CCCN2CCCCC2)c2ccccc2n1C1CCN(C(=S)NCc2ccc3c(c2)OCO3)CC1 [Compound 163] | 150 | 27 | 0 | – | – | – | –
O=c1n(CCCN2CCCCC2)c2ccccc2n1C1CCN(C(=S)NCc2ccc(Cl)cc2Cl)CC1 [Compound 164] | 86 | 35 | 5 | – | – | – | –
CN(C)c1ccc(CNC(=S)N2CCC(n3c(=O)n(CCCN4CCCCC4)c4ccccc43)CC2)cc1 [Compound 165] | – | 20 | 3 | – | 40 | – | –
CSC(=O)NC(=N)N1CCC(n2c(=O)n(CCCN3CCCCC3)c3ccccc32)CC1 [Compound 166] | – | 16 | 19 | – | 5 | – | –
O=c1n(Cc2ccc(-c3csnn3)cc2)c2ccccc2n1C1CCN(C(=S)NC(c2ccccc2)c2ccccc2)CC1 [Compound 167] | – | 1 | 8 | – | 12 | – | –
O=c1n(CCCN2CCCCC2)c2ccccc2n1C1CCN(C(=S)NCc2cccnc2)CC1 [Compound 168] | – | 25 | 2 | – | 62 | – | –
O=c1n(CCCN2CCCCC2)c2ccccc2n1C1CCN(C(=S)NCc2ccccc2-c2ccccc2)CC1 [Compound 169] | 12 | – | – | – | – | 1720 | 4
O=c1n(CCCN2CCC(N3CCCCC3)CC2)c2ccccc2n1C1CCN(C(=S)NC(c2ccccc2)c2ccccc2)CC1 [Compound 170] | 80 | – | 6 | – | – | 680 | –
Cc1ccc2c(c1)n(CCCN1CCCCC1)c(=O)n2C1CCN(C(=O)NC(c2ccccc2)c2ccccc2)CC1 [Compound 171] | – | 33 | 2 | – | 65 | – | –
Cc1ccc2c(c1)n(CCCN1CCCCC1)c(=O)n2C1CCN(C(=S)NC(c2ccccc2)c2ccccc2)CC1 [Compound 172] | 72 | – | 6 | – | – | 700 | –
CC(C)(NC(=S)N1CCC(n2c(=O)n(CCCN3CCCCC3)c3ccccc32)CC1)c1ccccc1 [Compound 173] | 250 | 43 | 0 | – | – | – | –
O=c1n(CCCN2CCCCC2)c2ccccc2n1C1CCN(C(=S)NCc2ccc(Cl)c(Cl)c2)CC1 [Compound 174] | 420 | 34 | 0 | – | – | – | –
